Experimental findings from patent US20130266605A1, “PEPTIDE INHIBITORS OF CD40L SIGNALING AND USES THEREFOR” (PHYLOGICA LIMITED, priority 2010, published 2013) are described below.

One assay addresses T1, CD40L (Homo sapiens, UniProt P29965).
T1 sequence (P29965 113-261 limits assumed): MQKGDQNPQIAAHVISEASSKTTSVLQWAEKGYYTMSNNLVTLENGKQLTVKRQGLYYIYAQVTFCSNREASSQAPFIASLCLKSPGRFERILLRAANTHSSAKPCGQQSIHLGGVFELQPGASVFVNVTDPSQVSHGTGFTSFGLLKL
Nature of the assay: Octet Red label-free association/dissociation analysis. It is filed as binding. The procedure: Label-free analyses of the associations and dissociations of base peptides and serine derivatives of base peptides with the CD40L target protein were performed using the Octet Red system (ForteBio, Inc., USA) according to the manufacturer's instructions. These analyses provide kinetic constants of CD40L binding activity, especially the association rate constant (Ka) and dissociation rate constant ([…]) of binding, i.e., measures of the “on” and “off” rates of the peptides relative to soluble CD40L.
A general note: In BLI a coated tip is dipped into the sample, and binding shifts an interference pattern.

The next assay deals with T2, CD40L-CD40 interaction (Homo sapiens, UniProt P29965).
T2 sequence (P29965 113-261 limits assumed): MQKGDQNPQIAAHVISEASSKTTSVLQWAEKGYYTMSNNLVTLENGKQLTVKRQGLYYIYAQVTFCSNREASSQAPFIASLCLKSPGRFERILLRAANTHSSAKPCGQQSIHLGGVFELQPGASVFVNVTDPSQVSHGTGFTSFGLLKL
Nature of the assay: Chemiluminescent proximity assay (Alphascreen). In kind it is binding. The conditions noted are these: for inhibition of the interaction between CD40L and CD40: in words, Alphascreen proximity assay. The procedure:
In one example, the Alphascreen assay (PerkinElmer) was employed according to the manufacturer's instructions.
Homodimers and heterodimers were also assayed by chemiluminescent proximity assay for their ability to inhibit CD40L-CD40 interaction.
(In general: Bead proximity is the source of the signal in Alpha formats.)

Assay [1] concerns the target CD40L-induced CD86 expression on primary B-cells (UniProt P29965). Nature of the assay: Inhibition of CD40L-induced CD86 expression on primary B-cells (FACS). The following applies: for inhibition of CD40L-induced CD86 expression on primary B-cells: in words.
Procedure: In one example, the ability of a peptide, analog or derivative of the invention to inhibit or reduce or delay expression of CD86 on primary B-cells was determined in the presence and absence of the peptides, analogs and derivatives of the invention. In particular, CD86 expression was determined by FACS.
As a control in these assays, LPS-induced expression of CD86 mediated by the Toll-like receptors TLR 2/4, and TNFα-induced cytoxicity, were also assayed to exclude effects mediated by ligands other than CD40L.
Setting [2] is: Cys-Ser derivative peptides, read-out: KD value.
Setting [3] is: base peptides, equilibrium dissociation constant, read-out: KD.

In general, Kd refers to the constant that tells how readily two partners part at equilibrium.

Like-named read-outs stand apart in the source and are kept apart here. Positions of bridges follow the written chain, without caps; N, C: chain ends. Non-standard residues stand in square brackets, D forms with d. Residues, ends and D or L forms follow the SMILES beside them. Chains are numbered I, II in the order given. No end group written: not given here. AEEA = NCCOCCOCC(=O)O

Sequence of CD40L-induced CD86 expression on primary B-cells (P29965 whole entry): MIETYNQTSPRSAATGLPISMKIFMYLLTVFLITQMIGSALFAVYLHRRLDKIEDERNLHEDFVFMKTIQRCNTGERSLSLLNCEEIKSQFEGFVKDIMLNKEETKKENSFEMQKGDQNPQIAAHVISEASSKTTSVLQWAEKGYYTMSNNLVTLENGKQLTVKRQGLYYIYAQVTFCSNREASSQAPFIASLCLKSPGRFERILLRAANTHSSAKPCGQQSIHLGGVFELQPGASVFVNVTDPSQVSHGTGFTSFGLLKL
Sequence of CD40L-induced CD86 expression on primary B-cells (P25942 21-277 partner): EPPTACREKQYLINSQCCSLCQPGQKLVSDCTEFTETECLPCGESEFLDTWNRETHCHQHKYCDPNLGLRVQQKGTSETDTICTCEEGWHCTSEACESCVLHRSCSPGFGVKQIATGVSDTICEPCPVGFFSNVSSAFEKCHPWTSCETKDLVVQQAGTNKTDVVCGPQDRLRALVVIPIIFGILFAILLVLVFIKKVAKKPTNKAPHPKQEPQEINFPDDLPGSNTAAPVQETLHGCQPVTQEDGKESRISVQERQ

Turning to `CC[C@H](C)[C@H](NC(=O)[C@H](CC(N)=O)NC(=O)[C@H](Cc1ccccc1)NC(=O)[C@@H]1CCCN1C(=O)[C@@H](NC(=O)[C@H](CC(N)=O)NC(=O)[C@@H](NC(=O)CNC(=O)[C@H](Cc1ccccc1)NC(=O)[C@H](CC(C)C)NC(=O)[C@@H](NC(=O)[C@H](Cc1ccccc1)NC(=O)[C@H](CO)NC(=O)[C@@H](N)Cc1c[nH]cn1)C(C)C)C(C)C)C(C)C)C(=O)N[C@H](C(=O)N[C@@H](CC(=O)O)C(=O)N[C@@H](Cc1ccccc1)C(=O)N[C@@H](CCC(N)=O)C(=O)N[C@@H](CCSC)C(=O)N[C@@H](CCCNC(=N)N)C(=O)N[C@H](C(=O)N[C@@H](CCCCN)C(=O)N[C@@H](CO)C(=O)O)C(C)C)[C@@H](C)CC` [CD40L M1_42s] (H-HSFVLFGVNVPFNIIDFQMRVKS-OH), at CD40L (setting [2]), the Kd came to 100 nM. For the molecule `CC[C@H](C)[C@H](NC(=O)[C@H](C)NC(=O)[C@@H](NC(=O)[C@H](CCSC)NC(=O)[C@H](CCC(=O)O)NC(=O)[C@H](CO)NC(=O)[C@@H](N)CC(C)C)[C@@H](C)CC)C(=O)N[C@@H](Cc1ccc(O)cc1)C(=O)N[C@H](C(=O)N[C@@H](Cc1ccccc1)C(=O)N[C@@H](CC(C)C)C(=O)N[C@@H](Cc1c[nH]c2ccccc12)C(=O)N[C@@H](CCCCN)C(=O)N[C@@H](CCCCN)C(=O)N[C@H](C(=O)N[C@@H](Cc1ccccc1)C(=O)N[C@@H](CC(C)C)C(=O)O)C(C)C)C(C)C` [CD40L M7_217s] (H-LSEMIAIYVFLWKKVFL-OH; N-terminus and C-terminus assumed), the dissociation constant Kd at CD40L (setting [2]) turned out to be 100 nM. For `CC[C@H](C)[C@H](NC(=O)[C@H](CO)NC(=O)[C@H](Cc1ccccc1)NC(=O)[C@@H](NC(=O)[C@H](CC(N)=O)NC(=O)[C@H](CCCCN)NC(=O)[C@@H](NC(=O)[C@H](CO)NC(=O)[C@H](Cc1ccccc1)NC(=O)[C@@H]1CCCN1C(=O)[C@H](Cc1c[nH]cn1)NC(=O)COCCOCCNC(=O)[C@@H](N)CSSC[C@H](N)C(=O)NCCOCCOCC(=O)N[C@@H](Cc1c[nH]cn1)C(=O)N1CCC[C@H]1C(=O)N[C@@H](Cc1ccccc1)C(=O)N[C@@H](CO)C(=O)N[C@H](C(=O)N[C@@H](CCCCN)C(=O)N[C@@H](CC(N)=O)C(=O)N[C@H](C(=O)N[C@@H](Cc1ccccc1)C(=O)N[C@@H](CO)C(=O)N[C@H](C(=O)N[C@@H](Cc1c[nH]c2ccccc12)C(=O)N[C@@H](CC(N)=O)C(=O)N[C@@H](Cc1ccccc1)C(=O)N[C@@H](Cc1ccccc1)C(=O)N[C@@H](CO)C(=O)N[C@H](C(=O)N[C@@H](Cc1ccc(O)cc1)C(=O)O)C(C)C)[C@@H](C)CC)C(C)C)[C@@H](C)CC)[C@@H](C)CC)C(C)C)C(=O)N[C@@H](Cc1c[nH]c2ccccc12)C(=O)N[C@@H](CC(N)=O)C(=O)N[C@@H](Cc1ccccc1)C(=O)N[C@@H](Cc1ccccc1)C(=O)N[C@@H](CO)C(=O)N[C@H](C(=O)N[C@@H](Cc1ccc(O)cc1)C(=O)O)C(C)C` [Cys_M1_6S homodimer] (I: H-C[AEEA]HPFSIKNVFSIWNFFSVY-OH / II: H-C[AEEA]HPFSIKNVFSIWNFFSVY-OH; disulfide I:1-II:1; C-terminus assumed), the “inhibition of the interaction between CD40L and CD40” value at CD40L-CD40 interaction (listed as 6-6 dimer) was “enhanced inhibition”; against CD40L-CD40 interaction (listed as homodimer of the Phylomer peptide M1—6), “inhibition”. For the same molecule, in assay [1], the “inhibition of CD40L-induced CD86 expression on primary B-cells” value was “enhanced inhibition”. As for `CC(C)C[C@H](NC(=O)[C@H](Cc1ccc(O)cc1)NC(=O)[C@H](CC(=O)O)NC(=O)[C@H](CCCNC(=N)N)NC(=O)[C@H](CCCNC(=N)N)NC(=O)[C@H](Cc1ccccc1)NC(=O)[C@H](CO)NC(=O)[C@H](CO)NC(=O)[C@H](Cc1ccc(O)cc1)NC(=O)[C@H](Cc1ccccc1)NC(=O)[C@H](CCCNC(=N)N)NC(=O)[C@H](Cc1ccccc1)NC(=O)[C@H](CC(C)C)NC(=O)[C@H](Cc1ccccc1)NC(=O)[C@H](Cc1ccccc1)NC(=O)[C@H](CC(C)C)NC(=O)[C@H](CC(N)=O)NC(=O)[C@H](Cc1ccc(O)cc1)NC(=O)[C@H](CCCNC(=N)N)NC(=O)[C@@H]1CCCN1C(=O)[C@@H]1CCCN1)C(=O)N[C@@H](Cc1ccc(O)cc1)C(=O)N[C@@H](Cc1ccccc1)C(=O)O` [CD40L M1_9s] (H-PPRYNLFFLFRFYSSFRRDYLYF-OH), the Kd at CD40L (setting [2]) was found to be 300 nM.

Take “I: H-C[AEEA]PPRYNLFFLFRFYSSFRRDYLYF / II: H-C[AEEA]HPFSIKNVFSIWNFFSVY (disulfide I:1-II:1) [Cys_M1_6S-Cys_M1_9S heterodimer]”: the results for the “inhibition of the interaction between CD40L and CD40” value on CD40L-CD40 interaction (listed as 6-9 dimer) and on CD40L-CD40 interaction (listed as 6-9 high purity dimer) were “enhanced inhibition” and “inhibition”, respectively. The “inhibition of CD40L-induced CD86 expression on primary B-cells” value in assay [1] was “enhanced inhibition”.

Consider FHRMYVILQIIWFITPRWTFP [CD40L M7_206rd], for which the EC50 worked out at 12 nM at CD40L-CD40 interaction (PEGylated chiral (retro-inverted) analog, read-out: EC50(PEGylated) CD40L/CD40-Fc/BAF617) and 2000 nM in assay [1] (read-out: EC50 PEGylated peptide, PEGylated monomeric peptide). At CD40L, “PFTWRPTIFWIIQLIVYMRHFGGGGSRSELLRENICRYVSLFDHPLQRNTPLDELRFVIFDTETSGFDLVKDRILSIR [CD40L D1_0014]” came in with a dissociation constant Kd of 48 nM. The “higher affinity for CD40L than the base monomeric peptide” value on CD40L (heterodimer versus N-terminal monomer, from Table 2 data) is listed as 6 fold. For the molecule `CC[C@H](C)[C@H](NC(=O)[C@H](CC(C)C)NC(=O)[C@H](Cc1c[nH]c2ccccc12)NC(=O)[C@H](CCSC)NC(=O)[C@H](CCC(=O)O)NC(=O)CNC(=O)[C@H](CCC(=O)O)NC(=O)[C@H](CC(C)C)NC(=O)[C@H](CO)NC(=O)[C@H](CCC(=O)O)NC(=O)[C@@H](NC(=O)[C@@H](N)CCCNC(=N)N)[C@@H](C)CC)C(=O)N[C@@H](CC(N)=O)C(=O)N1CCC[C@H]1C(=O)N[C@@H](Cc1ccccc1)C(=O)N[C@@H](CC(N)=O)C(=O)NCC(=O)N[C@@H](CCC(=O)O)C(=O)N[C@H](C(=O)N[C@@H](CC(C)C)C(=O)N[C@@H](CC(=O)O)C(=O)N[C@@H](CCC(=O)O)C(=O)N[C@@H](Cc1c[nH]cn1)C(=O)N[C@H](C(=O)N[C@@H](CC(C)C)C(=O)N[C@@H](CCC(=O)O)C(=O)N[C@H](C(=O)N[C@@H](Cc1c[nH]c2ccccc12)C(=O)N[C@@H](CC(C)C)C(=O)N[C@@H](CCCCN)C(=O)O)C(C)C)[C@@H](C)O)[C@@H](C)O` [CD40L M8_748] (H-RIESLEGEMWLINPFNGETLDEHTLEVWLK-OH), the dissociation constant Kd on CD40L came to 5 nM. Besides, the EC50 on CD40L-CD40 interaction was 184 nM. Take `CC[C@H](C)[C@H](NC(=O)[C@H](CC(N)=O)NC(=O)[C@H](Cc1ccccc1)NC(=O)[C@@H]1CCCN1C(=O)[C@@H](NC(=O)[C@H](CC(N)=O)NC(=O)[C@@H](NC(=O)CNC(=O)[C@H](Cc1ccccc1)NC(=O)[C@H](CC(C)C)NC(=O)[C@@H](NC(=O)[C@H](Cc1ccccc1)NC(=O)[C@H](CO)NC(=O)[C@@H](N)Cc1c[nH]cn1)C(C)C)C(C)C)C(C)C)C(=O)N[C@H](C(=O)N[C@@H](CC(=O)O)C(=O)N[C@@H](Cc1ccccc1)C(=O)N[C@@H](CCC(N)=O)C(=O)N[C@@H](CCSC)C(=O)N[C@@H](CCCNC(=N)N)C(=O)N[C@H](C(=O)N[C@@H](CCCCN)C(=O)N[C@@H](CS)C(=O)O)C(C)C)[C@@H](C)CC` [CD40L M1_42] (H-HSFVLFGVNVPFNIIDFQMRVKC-OH; N-terminus and C-terminus assumed): on CD40L (setting [3]), the Kd was found to be 30 nM.

As to “LDLFGDFNGLPEGADRTEFYQHEGHWQNRMILGDSLQVMASLAEREGLRGKVQCIYFDPPYGIKFN [CD40L M9_763]”, the Kd on CD40L (setting [3]) worked out at 27 nM.

B1: LAEHAVWSLKcFPDWEWYNINIFGTDDPNHFWVEcDGHGKILFPGYPEGYYENHFLHSFELED (peptide)
peptide: LAEHAVWSLKCFPDWEWYNINIFGTDDPNHFWVECDGHGKILFPGYPEGYYENHFLHSFELED
modifications: not fully specified
For B1, the dissociation constant (Kd) with CD40L (setting [3]) is 8 nM. In the assay with CD40L-CD40 interaction (monomeric non-PEGylated (unmodified) base peptide; 50% reduction in control emission at 520-620 nm; read-out: EC50nmodified) CD40L/CD40-Fc/BAF617), the EC50 amounted to 197 nM.
